Here are results for two compounds from US20170128592A1, “TARGETED POLYMERIC NANO-COMPLEXES AS DRUG DELIVERY SYSTEM” (Indian Institute of Technology, Bombay, priority 2015, published 2017).

Common to all, as to type: cell-based, human
Test [1] deals with pEGFR expression in Huh7 cells. Put plainly: Immunofluorescence (CLSM) of pEGFR expression. As to conditions: 48 hr. The procedure: (§1) To evaluate the effect of nanocomplexes on EGFR and tubulin interactions, Huh7 cells (5×10^4 cells/well) in 24 well plates were treated with 15 nM of CA4, PLGA-b-PEG-CA4 NP, Cet-PLGA-b-PEG-CA4 NP, 5 μM of 2 ME, PLGA-b-PEG-2 ME NP, Cet-PLGA-b-PEG-2 ME NP and combinatorial Cet-PLEA-b-PEG-CA4 NP+Cet-PLGA-b-PEG-2 ME NP (15 nM+5 μM) for 48 hr. Untreated and bare PLGA-b-PEG NP treated cells served as the negative controls. Cells were then fixed with 3.7% formaldehyde at 37° C. for 30 min and immunostained with primary antibodies anti-EGFR, anti-pEGFR XP rabbit monoclonal antibodies (Cell Signaling Technology Inc., USA), anti-α-Tubulin mouse monoclonal antibody (Signa Aldrich, USA) and anti-pHistone H3 rabbit polyclonal antibody (Ser-10, Santa Cruz Biotechnology, USA) followed by incubation with secondary antibody FITC-conjugated anti-mouse IgG or FITC-conjugated anti-rabbit IgG (Sigma Aldrich, USA) or anti-mouse IgG-Alexa 568 conjugate (Invitrogen, USA). Hoechst 33258 was used for DNA counterstaining and cells were examined under CLSM.

Test [2] relates to pHistone H3 in Huh7 cells. Description: Immunofluorescence of Histone H3 phosphorylation (Serine 10). As to conditions: 48 hr. How it is done:
as §1

The test system of test [3] is Huh7 cells. Description: SRB cytotoxicity assay. The following applies: Huh7, 48 hr incubation, mean ± SD of three experiments. The procedure:
For cytotoxicity measurements, Hep G2 and Huh7 cells were incubated in 96-well plates (Nunc, USA) at 5×10^4 cells/well density and then treated with bare PLGA-b-PEG NP, Cet-PLEA-b-PEG NP (50-250 μg/mL), free drug CA4, its nano-complexes ([…]) and free drug 2 ME, its nano-complexes (1-15 μM) for 48 hr. […] The standard SRB assay was used to measure the cell viabilities. The absorbance was measured with a 96-well fluorescence plate reader (SPECTRAmax M2, Molecular Devices, USA) equipped with the SOFTmax Pro software (Molecular Devices), at a 550 nun wavelength. IC50 values of the free drugs and all the nanocomplexes were evaluated using OriginPro 8.0 software.
Background: The SRB assay estimates cell density from bound dye.

Test [4] relates to Huh7 cells. Put plainly: Annexin V/PI apoptosis assay by flow cytometry. As to conditions: IC50 concentrations, 48 hr. How it is done: Annexin V and Propidium iodide (PI) staining detection kit was used to quantify apoptotic cells. […] A combination of Cet-PLGA-b-PEG-CA4 NP Cet-PLEA-b-PEG-2ME NP (15 nM+5 μM) was also evaluated. Untreated and bare PLGA-b-PEG NP treated cells served as the negative controls. Cells were washed twice with PBS and resuspended in 400 μL of 1× binding buffer. Then, 5 μL of Annexin V-FITC and PI solution were added to the test samples, incubated for 15 min in dark at room temperature, and analyzed using flow cytometer BD FACS ARIA special order system equipped with the BD FACSDiva. (Becton and Dickinson, USA) software program. The fluorescence of 20,000 cells were gated and counted for each sample.

As to `COc1ccc(/C=C\c2cc(OC)c(OC)c(OC)c2)cc1O` [CA4, combretastatin A4], the “effect on pEGFR expression by CLSM” value in test [1] (15 nM) is given as “moderately affected”. Further, the “pHistone H3 positive cells” value in test [2] (15 nM) is recorded as 4±0.3%. In the test with Huh7 cells [3], this compound showed an IC50 of 14.9 nM. Moreover, in the test with Huh7 cells [4], the induction of apoptosis is 11.5%.

Turning to `COc1cc2c(cc1O)CC[C@@H]1[C@@H]2CC[C@]2(C)[C@@H](O)CC[C@@H]12` [2 ME, 2-methoxyestradiol], the “effect on pEGFR expression by CLSM” value in test [1] (5 μM) is given as “moderately affected”. The “pHistone H3 positive cells” value in test [2] (5 μM) was determined as 2±0.7%. Moreover, it took 3500 nM to reach half-maximal inhibition in the test with Huh7 cells [3] (IC50). In addition, the induction of apoptosis in the test on Huh7 cells [4] amounted to 2.6%.

By IC50 is commonly meant the concentration at which inhibition is half-maximal. Lower therefore signals greater potency.
